US20210023089A1, “Compositions Useful for Treating Herpes Simplex Keratitis, and Methods Using Same” (priority 2013, published 2021)

Experiments:
HSV-1 [1] = assay: qPCR of viral genome replication in HSV-1 infected HCE cells; assay type: cell-based, HSV-1 (KOS strain); details: MOI 0.1, inhibitor 10 μM
Experimental: All cells were cultured at 37° C. and 5% CO2, and supplemented with 100 U/ml penicillin and 100 μg/ml streptomycin. Human corneal epithelial cells immortalized with hTERT (hTCEpi; Bahassi et al., 2008, Oncogene 27:3977-3985) were grown in complete KGM-2 medium. Human corneal epithelial cells immortalized with SV40 large T antigen (HCE; Araski-Sasaki et al., 1995, Invest. Ophthalmol. Visual Sci. 36:614-621), as well as African green monkey kidney fibroblasts (CV-1; Jensen et al., 1964, Proc. Natl. Acad. Sci. USA 52:53-59), were grown in DMEM medium supplemented with 10% FBS. KOS strain (Smith, Proc. Soc. Exp. Biol. Med. Soc. Exp. Biol. Med. 115:814-816) of HSV-1 was used in all infections. All viral stocks were titered on CV-1 monolayers.
Tetracyline-inducible Chk2 knockdown cell line was derived by lentivirally transducing HCE cells with a construct harboring shRNA sequence against the Chk2 transcript. The Chk2 shRNA sequence was acquired from Sigma (NM_007194.2-129951c1) and targets the following region: 5′-[…]-3′ (SEQ ID NO:1). Lentiviral particles were produced in 293T packaging cells (Dull et al., 1998, J. Virol. 72:8463-8471). […]
Total DNA from infected cells and corneas was isolated using the DNeasy Blood & Tissue Kit (QIAGEN, Hilden, Germany). Real time quantitative PCR was performed with SYBR Green (Bio-Rad, Hercules, Calif.). […]

HSV-1 [2] = assay: qRT-PCR of viral transcripts in HSV-1 infected hTCEpi cells; assay type: cell-based, HSV-1 (KOS strain); details: MOI 0.1, 10 μM, 16 hpi
Experimental: (§1) The following strains of HSV-1 were used: KOS, ICPO-null, HFEM, and tsB7. Subconfluent monolayers of cells were grown in six-well plates. Drug treatments were administered 45 minutes prior to infection and continued for the entire duration of each experiment. Unless indicated otherwise, KU-55933 (Batch No. 5, 99.7% purity; Tocris Bioscience, Bristol, UK) was used at 10 μM final concentration, phosphonoacetic acid (PAA) at 400 μg/mL (Sigma-Aldrich, St. Louis, Mo.), and acyclovir at 50 μg/mL (Sigma-Aldrich). KU-55933 was dissolved in dimethyl sulfoxide (DMSO), and the final concentration of DMSO in both KU-55933 and mock treatment in the in vitro and the ex vivo experiments was 0.1%.
Viral genome replication and transcription were measured by quantitative PCR (qPCR). Total DNA and RNA from infected cells were isolated using the DNeasy Blood & Tissue Kit and the RNeasy Mini Kit, respectively (QIAGEN, Hilden, Germany). RNA was converted to cDNA using qScript (Quanta BioSciences, Gaithersburg, Md.). Real-time qPCR was performed with SYBR Green (Bio-Rad, Hercules, Calif.). […] Transcription of the three gene families was measured with primers for RL2 (ICPO), UL30 (DNA polymerase catalytic subunit), and UL44 (gC), with reference primers for the 18S ribosomal RNA (rRNA).

[3] = system: dlsptk strain of HSV-1 (TK mutant); assay: qPCR of genome replication of drug-resistant HSV-1 in hTCEpi cells; assay type: cell-based
Experimental: All cells were cultured at 37° C. and 5% CO2 and supplemented with 100 U/mL penicillin and […]. Human corneal epithelial cells immortalized with hTERT (hTCEpi; Robertson, et al., 2005, Invest Ophthalmol Vis Sci. 46:470-478) were grown in complete keratinocyte growth medium 2 (KGM-2; Lonza, Basel, Switzerland). African green monkey kidney fibroblasts (CV-1; American Type Culture Collection, Manassas, Va.) were grown in Dulbecco's modified Eagle's medium (DMEM; Cellgro, Manassas, Va.) supplemented with 10% FBS. The KOS strain of HSV-1 was used in the in vitro and ex vivo infections, whereas McKrae strain was used for in vivo mouse experiments, and TK mutant dlsptk strain (Coen et al., 1989, Proc Natl Acad Sci USA 86:4736-4740) was used in the drug resistance experiments. All viral stocks were titered on CV-1 monolayers.
as §1
Viral genome replication and transcription were measured by quantitative PCR (qPCR). Total DNA and RNA from infected cells were isolated using the DNeasy Blood & Tissue Kit and the RNeasy Mini Kit, respectively (QIAGEN, Hilden, Germany). RNA was converted to cDNA using qScript (Quanta BioSciences, Gaithersburg, Md.). […] Transcription of the three gene families was measured with primers for RL2 (ICPO), UL30 (DNA polymerase catalytic subunit), and UL44 (gC), with reference primers for the 18S ribosomal RNA (rRNA).

HSV-1 [4] = assay: Western blot of viral proteins in HSV-1 infected hTCEpi cells; assay type: cell-based, HSV-1 (KOS strain); details: MOI 0.1, 10 μM, 16 hpi
Experimental: as §1
Standard protocol was followed for Western blot analysis. Cell lysates were collected in 200 μL Laemmli buffer, vortexed, and boiled at 95° C. for 5 minutes. Protein concentrations were measured by bicinchoninic acid (BCA) assay. SDS-PAGE was followed by transfer onto a polyvinylidene difluoride (PVDF) membrane, which was then blocked in 5% BSA. […]

SMILES | viral genome replication (qPCR) (HSV-1 [1]) | levels of viral transcripts (ICP0, DNA polymerase, glycoprotein C) (HSV-1 [2]) | genome replication of dlsptk strain (qPCR) ([3]; MOI 0.1, 16 hpi, KU-55933 10 μM, acyclovir 50 μg/mL) | inhibitory effect on dlsptk infection compared with KOS infection ([3]; MOI 0.1, KU-55933 10 μM, 16 hpi) | levels of viral proteins (Western blot) (HSV-1 [4])
NC(=O)c1ccc2[nH]c(-c3ccc(Oc4ccc(Cl)cc4)cc3)nc2c1 [Chk2 inhibitor II, 2-(4-(4-chlorophenoxy)phenyl)-1H-benzimidazole-5-carboxamide] | profoundly reduced |  |  |  | 
O=c1cc(-c2cccc3c2Sc2ccccc2S3)oc(N2CCOCC2)c1 [KU-55933, 2-(morpholin-4-yl)-6-(thianthren-1-yl)-pyran-4-one] |  | reduced | markedly suppress | as potent as its effect on KOS infection | pronounced decrease
